In patent US20140377379A1, “METHOD FOR PROGNOSING THE AGE-AT-ONSET OF HUNTINGTON'S DISEASE” (Institut National de la Sante et de la Recherche Medicale …, priority 2010, published 2014):
Entries after “also recorded” stand apart in the source; their conditions may differ.

Key:
[1] = tested on: 19Q nematodes (normal polyQ); assay: Touch test in 19Q control nematodes; type: in vivo, C. elegans
Experimental: (§1) The wild-type strain of C. elegans used was Bristol N2. Standard methods of culturing and handling worms were used. All strains were scored at 20° C. Touch tests, scoring of PLM cell processes, drug response assays and quantitative Real-Time PCR were performed as previously described (Parker et al. 2005 Nat Genet. 37:349-350). Western analysis was performed using standard protocols and htt fusion proteins detected with the GFP antibody ab6556 (Abcam). Mutations and transgenes used in this study were: aak-2(ok524), bar-1(ga80), cfz-2(ok 1201), cst-1(tm1900), ctl-2(ok1137), cwn-1(ok546), cwn-2(ok895), daf-2(e1370), daf-16(mgD150), dhc-1(or195), dnc-1(or 404), egl-20(n585), ftt-2(n4426), geln3[sir-2.1(+)], igls1[mec-3::htt57Q128::CFP;mec-7::YFP;lin-15(+)], igls245[mec-3::htt57Q19::CFP; mec-7::YFP; lin-15(+)]. lin-17(n671), lin-44(n1792), mig-1(e1787), pop-1(q624), rrf-3(pk1426), sir-2.1(ok434), sod-3(gk235) and ucp-4(ok 195). […]
(§2) Touch tests involved scoring for the response to light touch at the tail by using a fine hair. […] The responses were recorded for every animal such that, for example, 3 responses out of 10 at the tail is given as 30% responsiveness, and the mean values for responsiveness were retained for comparison of nematode groups.

[2] = tested on: 128Q nematodes (expanded polyQ in touch receptor neurons); assay: Touch test (response to light touch at the tail) in 128Q nematodes; type: in vivo, C. elegans
Experimental: as §1, §2

[3] = tested on: PLM cells of 128Q animals; assay: Scoring of PLM cell processes (axonal swelling); type: in vivo, C. elegans; settings: versus DMSO controls
Experimental: as §1, with “195). All strains were obtained from the C. elegans Genetics Center (University of Minnesota, Minneapolis) except for cst-1(tm1900) which was from the National Bioresource Project for the Nematode (Tokyo, Japan). For strain construction with polyQ transgenes, mutants were verified by visible phenotypes, PCR analysis for deletion mutants, sequencing for point mutations or a combination thereof.” for “195).”

109Q/109Q striatal cells = assay: Cell death assay in mutant htt striatal cells from HdhQ111 mice; type: cell-based, mouse
Experimental: Cell death assays for HdhQ111 mouse striatal cells expressing full-length htt with either wild-type (7Q/7Q) or mutant (109Q/109Q) polyglutamines were performed as previously described (Arango et al. 2006 Neurosci 26:4649-59). jetPEI was used for transfection with cDNA and jetSI-ENDO for siRNA assays as indicated by the manufacturer (PolyPlus Transfection). siRNA oligos were obtained from Clontech (β-catenin) and QIAGEN (SIRT1, SIRT2, SIRT3, UCP2 and UCP4). Mixes of 3-4 different siRNA sequences per gene (25 or 33 nM) were systematically tested for modulation of cell survival and siRNA target gene expression, followed by the evaluation of individual siRNA sequences at optimal concentration (25-100 nM). […] The siRNA sequences shown in figures are as it follows: β-catenin siRNA, 5′-[…]-3′ (100 nM) (SEQ ID NO:41); FoxO3a siRNA 5′-[…]-3′ (SEQ ID NO:42) (100 nM); SIRT1 siRNA, 5′-[…]-3′ (SEQ ID NO:43) (25 nM); SIRT2 siRNA 5′-[…]-3′ (SEQ ID NO:44) (25 nM); SIRT3 siRNA, 5′-[…]-3′ (SEQ ID NO:45) (25 nM); UCP2 siRNA, 5′-[…]-3′ (SEQ ID NO:46) (33 nM), and UCP4 siRNA sequences 5′-[…]-3′ (SEQ ID NO:47) (33 nM). The constructs encoding an active variant of SIRT1 (2 kb cDNA) lacking an internal segment in the N-terminus and full length FoxO3a were pcDNA3.1-sirt1-Flag and pcDNA3.1-FoxO3a-HA, respectively. Cells were subjected to DAPI staining and cell death was scored 48 hours after cell transfection by counting picnotic versus normal nuclei in DAPI- and JetSI-ENDO-positive cells. Cytoplasmic and nuclear proteins were extracted as previously described (Arango et al. 2006 Neurosci 26:4649-59), separated by SDS-PAGE and analyzed by Western blotting using the following primary antibodies: Mouse anti-SIRT1 (Upstate, 1:1000), mouse anti-SIRT2 (Santa Cruz, 1:100), rabbit anti-SIRT-3 (Abgent, 1:100), rabbit-anti-β-catenin (Cell Signaling, 1:5000), mouse anti-FoxO3a (Cell Signaling, 1:1000), goat-anti-UCP2 (Santa Cruz, dilution), rabbit-anti-UCP4 (Abcam, 1:25), mouse anti-actin (Invitrogen, 1:2000), anti-htt (4C8, Chemicon, 1:5000). Secondary antibodies were goat-anti-mouse IgG HRP-conjugated and goat-anti-rabbit IgG HRP-conjugated (Biorad). Proteins were detected using ECL+ and evaluated by densitometry. Quantitative Real-Time PCR experiments were performed as described in the Supporting Information/Materials and Methods. Chemicals were either purchased from Sigma (Resveratrol) and Calbiochem (B10, LiCl).

7Q/7Q striatal cells = assay: Cell death assay in normal htt striatal cells; type: cell-based, mouse; settings: siRNA
Experimental: (§3) Cell death assays for HdhQ111 mouse striatal cells expressing full-length htt with either wild-type (7Q/7Q) or mutant (109Q/109Q) polyglutamines were performed as previously described (Arango et al. 2006 Neurosci 26:4649-59). jetPEI was used for transfection with cDNA and jetSI-ENDO for siRNA assays as indicated by the manufacturer (PolyPlus Transfection). siRNA oligos were obtained from Clontech (β-catenin) and QIAGEN (SIRT1, SIRT2, SIRT3, UCP2 and UCP4). […] Cells were subjected to DAPI staining and cell death was scored 48 hours after cell transfection by counting picnotic versus normal nuclei in DAPI- and JetSI-ENDO-positive cells. Cytoplasmic and nuclear proteins were extracted as previously described (Arango et al. 2006 Neurosci 26:4649-59), separated by SDS-PAGE and analyzed by Western blotting using the following primary antibodies: Mouse anti-SIRT1 (Upstate, 1:1000), mouse anti-SIRT2 (Santa Cruz, 1:100), rabbit anti-SIRT-3 (Abgent, 1:100), rabbit-anti-β-catenin (Cell Signaling, 1:5000), mouse anti-FoxO3a (Cell Signaling, 1:1000), goat-anti-UCP2 (Santa Cruz, dilution), rabbit-anti-UCP4 (Abcam, 1:25), mouse anti-actin (Invitrogen, 1:2000), anti-htt (4C8, Chemicon, 1:5000). […] Proteins were detected using ECL+ and evaluated by densitometry. Quantitative Real-Time PCR experiments were performed as described in the Supporting Information/Materials and Methods. […]

β-catenin = assay: Western blot of β-catenin in 109Q/109Q cells; type: cell-based, mouse
Experimental: as §3

mutant htt = assay: Western blot of mutant htt in 109Q/109Q cells; type: cell-based, mouse
Experimental: as §3

UCP2 mRNA = assay: Quantitative RT-PCR of UCP2 mRNA in striatal cells; type: cell-based, mouse
Experimental: as §3

UCP4 mRNA = assay: Quantitative RT-PCR of UCP4 mRNA in striatal cells; type: cell-based, mouse; settings: for UCP4 mRNA levels: 109Q/109Q cells, qRT-PCR
Experimental: as §3, with “UCP4). Mixes of 3-4 different siRNA sequences per gene (25 or 33 nM) were systematically tested for modulation of cell survival and siRNA target gene expression, followed by the evaluation of individual siRNA sequences at optimal concentration (25-100 nM).” for “UCP4).”
Quantitative RT-PCR was performed on RNA extracted from 109Q/109Q mouse striatal cells, transfected with the appropriate siRNAs, to assess gene silencing efficiency. […]

[4] = tested on: reactive oxygen species (ROS) levels in striatal cells; assay: ROS levels in striatal cells; type: cell-based, mouse
[5] = siRNA 25-100 nM, cell death scored 48 hours after transfection, versus untreated

Compound: [Cl-].[Li+] [Lithium chloride]
- effect on normal polyQ (19Q) controls, touch response [1]: no effects on 19Q controls

Compound: O=C1Nc2cc(Br)ccc2/C1=C1/Nc2ccccc2/C1=N\O [BIO, 6-bromoindirubin-3′-oxime]
- neuronal dysfunction / expanded polyQ neurotoxicity (loss of response to touch) ([2]; 128Q nematodes, versus DMSO or untreated […]Q controls): rescues expanded polyQ neurotoxicity; also recorded: reduced neuronal dysfunction in 1280 animals
- BIO rescuing activity in 128Q animals mutant for FoxO network genes ([2]; 128Q, mutants for daf-16, sir-2.1, bar-1 and ucp-4): lost and in a bar-1 dependent manner and no effect in mutants for sir-2.1, daf-16 and ucp-4
- effect on normal polyQ (19Q) controls, touch response [1]: no effect on 19Q controls
- axonal swelling (AxSw) [3]: reduced AxSw in PLM cells of 128Q animals; also recorded: reduced axonal swelling
- survival effect of BIO combined with β-catenin siRNA (109Q/109Q striatal cells; BIO 0.5 μM + β-catenin siRNA, 109Q/109Q cells): lost by β-catenin siRNA
- survival of 109Q/109Q cells (109Q/109Q striatal cells; BIO 0.5 μM, cell death induced by serum deprivation, versus DMSO controls): enhanced the survival of 109Q/109Q cells

Compound: β-catenin siRNA: siRNA 5′-GGCTTTTCCCAGTCCTTCATT-3′ (100 nM) (SEQ ID NO:41) (listed as DNA, chemistry not given here)
- survival of 109Q/109Q cells (109Q/109Q striatal cells; [5]): reduced the survival of mutant htt striatal cells; also recorded: decreased the survival of 109Q/109Q cells
- survival of normal htt (7Q/7Q) cells (7Q/7Q striatal cells): no effects in normal htt cells
- β-catenin expression (β-catenin): β-catenin was reduced
- mutant htt expression (mutant htt): unchanged; also recorded: no change in htt expression
- UCP2 expression (UCP2 mRNA; 7Q/7Q cells): No effect
- UCP2 mRNA levels (UCP2 mRNA; 109Q/109Q cells, qRT-PCR): downregulated; also recorded: decreased UCP2 mRNA levels
- UCP4 expression (UCP4 mRNA; 7Q/7Q cells): No effect
- UCP4 mRNA levels (UCP4 mRNA): upregulated
- ROS levels ([4]; mutant htt (109Q/109Q) striatal cells, versus untreated): increased reactive oxygen species (ROS) levels in mutant htt striatal cells
- ROS levels ([4]; normal htt (7Q/7Q) cells): no effects in normal htt cells

Compound: UCP4 siRNA: siRNA 5′-GCCTATAGTATGTGCTTAATT-3′ (SEQ ID NO:47) (33 nM) (listed as DNA, chemistry not given here)
- survival of 109Q/109Q cells (109Q/109Q striatal cells; [5]): increased the survival of 109Q/109Q cells
- mutant htt expression (mutant htt): unchanged; also recorded: no change in htt expression
- UCP4 mRNA levels (UCP4 mRNA): decreased UCP4 mRNA levels
